Consider 33 compounds from ChEMBL document CHEMBL1201862, “PubChem BioAssay data set” (2004).

The structures appear in SMILES notation. Active and inactive are the calls of the source. For most assays here, no stated cut-off is given here; in the data, actives have a measured EC50 and inactives only a lower limit.

Experiment [1] concerns the target Paired box protein Pax-8 (Homo sapiens, UniProt Q06710). Description: PAX8 transcriptional activity inhibition in RMG-I – RMG-I cells, luciferase, cherry-pick, dose response (AID 687027).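 Further: luciferase reporter driven by Pax8 target thyroperoxidase promoter measured by SteadyGlo luminescence.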 The class given is functional, cell-based.
Experiment [2] deals with T1, Heat shock factor protein 1 (Mus musculus, UniProt P38532).
T1 sequence (P38532 whole entry): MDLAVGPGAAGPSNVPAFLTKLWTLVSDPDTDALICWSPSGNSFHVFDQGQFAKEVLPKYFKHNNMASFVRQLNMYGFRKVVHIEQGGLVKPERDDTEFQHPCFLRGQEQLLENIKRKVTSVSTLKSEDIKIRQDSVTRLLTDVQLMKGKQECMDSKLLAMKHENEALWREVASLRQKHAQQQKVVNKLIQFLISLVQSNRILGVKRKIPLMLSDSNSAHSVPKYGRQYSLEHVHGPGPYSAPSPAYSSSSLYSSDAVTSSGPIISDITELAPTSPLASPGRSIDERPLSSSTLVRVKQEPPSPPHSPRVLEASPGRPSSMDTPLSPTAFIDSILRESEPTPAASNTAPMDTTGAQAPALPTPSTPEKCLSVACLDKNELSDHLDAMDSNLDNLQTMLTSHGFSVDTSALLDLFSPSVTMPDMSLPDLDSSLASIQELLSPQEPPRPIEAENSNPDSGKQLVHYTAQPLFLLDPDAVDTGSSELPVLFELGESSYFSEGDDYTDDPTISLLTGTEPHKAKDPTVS
The experiment can be described thus: decrease of HSF1-responsive luciferase luminescence – cell-based, NIH3T3, dose retest, confirmation (AID 2382).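 Further: NIH3T3 fibroblasts with HSF1-driven luciferase reporter stressed by proteasome inhibitor MG132; luminescence from HSF1-driven luciferase expression after 8 hours of MG132 stress.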 It is filed as functional.

The nature of experiment [3]: fluconazole-exposed Candida albicans growth modulators – fluorescence, retest, confirmation (AID 2467). It is filed as functional, cell-based.
Experiment [4] in a line: NIH-3T3 fibroblast cytotoxicity, dose response, cytotoxicity control, cell-based, fluorescence, Alamar Blue, secondary assay (AID 2327).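 Further: NIH-3T3 mouse fibroblasts cultured with fluconazole at 8 µg/mL.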 It is filed as functional. In general terms: Resazurin is reduced to fluorescent resorufin, in cell work by metabolically active cells.
Experiment [5] is described as follows: alpha-synuclein stem-loop luciferase translation blockers – H4 neuroglioma cells, luminescence, confirmation (AID 1988). The class given is functional, cell-based.
A short description of experiment [6]: Luminescence Cell-Based Dose Response HTS to Identify Inhibitors of 5'UTR Stem-Loop Driven Prion Protein mRNA Translation in H4 Neuroglioblastoma Cells. [Related pubchem assays: 1827 (Project Summary), 1813 (Primary HTS)]. The class given is functional.
The nature of experiment [7]: luciferase reporter signal suppression in cells – H4 neuroglioma cells, luminescence, dose response (AID 1990). It is filed as functional, cell-based. A general note: A reporter such as luciferase makes a cellular process visible.
The target in experiment [8] is T2, Calpain-2 catalytic subunit (Sus scrofa, UniProt P43367).
T2 sequence (P43367 whole entry): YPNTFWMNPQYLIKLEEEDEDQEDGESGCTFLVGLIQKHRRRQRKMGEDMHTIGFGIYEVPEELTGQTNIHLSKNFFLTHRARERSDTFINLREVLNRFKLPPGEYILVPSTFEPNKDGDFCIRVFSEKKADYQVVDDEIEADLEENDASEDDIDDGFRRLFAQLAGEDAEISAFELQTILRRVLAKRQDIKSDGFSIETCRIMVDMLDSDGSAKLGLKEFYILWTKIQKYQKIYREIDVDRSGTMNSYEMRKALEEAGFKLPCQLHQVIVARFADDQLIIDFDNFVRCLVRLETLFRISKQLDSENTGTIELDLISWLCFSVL
The experiment can be described thus: m-calpain protease blockers, concentration series – biochemical, fluorogenic peptide substrate, dose response (AID 1420). The class given is functional.

The target in experiment [9] is T3, Streptokinase A (Streptococcus pyogenes serotype M1, UniProt P10520).
T3 sequence (P10520 whole entry): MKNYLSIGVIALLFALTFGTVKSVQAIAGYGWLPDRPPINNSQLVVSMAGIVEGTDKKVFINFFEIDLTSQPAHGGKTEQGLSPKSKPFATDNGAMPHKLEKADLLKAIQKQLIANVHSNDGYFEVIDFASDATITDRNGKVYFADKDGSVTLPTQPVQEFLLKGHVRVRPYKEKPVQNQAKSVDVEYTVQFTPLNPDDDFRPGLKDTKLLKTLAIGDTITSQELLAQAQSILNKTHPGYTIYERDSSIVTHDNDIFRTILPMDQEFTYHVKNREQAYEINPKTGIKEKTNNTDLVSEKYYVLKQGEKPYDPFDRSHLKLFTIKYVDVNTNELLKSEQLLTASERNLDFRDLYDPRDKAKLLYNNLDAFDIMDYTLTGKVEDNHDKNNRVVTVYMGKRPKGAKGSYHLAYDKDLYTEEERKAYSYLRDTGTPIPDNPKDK
The experiment can be described thus: viability-normalized secreted streptokinase activity reduction – plasminogen activation absorbance, OD405, dose response (AID 1914).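 Further: secreted streptokinase activity via plasminogen activation per viability signal from cell pellet.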 The class given is functional, Streptococcus pyogenes M1 GAS.

The subject of experiment [10] is Streptococcus. Description: GAS UMAA2166 growth inhibition – luminescence, BacTiterGlo, counter-screen for streptokinase expression inhibitor project, dose response (AID 1915).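 Further: potency for reduction of bacterial viability or growth.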 It is filed as functional, organism-based. In general terms: The purpose of a counterscreen is to sort out artefacts and off-target activity.
The test system of experiment [11] is Streptococcus sp. 'group A'. The experiment can be described thus: Streptococcus pyogenes SK(-)GAS viability under kanamycin – luminescence, BacTiterGlo, confirmation, counter-screen for streptokinase expression inhibitor project, dose response (AID 1900). The class given is functional, organism-based.
For experiment [12], the target named is T4, Corticotropin-releasing factor receptor 2/Corticotropin-releasing factor-binding protein (Homo sapiens, UniProt P24387+Q13324).
T4 sequence (Q13324 whole entry): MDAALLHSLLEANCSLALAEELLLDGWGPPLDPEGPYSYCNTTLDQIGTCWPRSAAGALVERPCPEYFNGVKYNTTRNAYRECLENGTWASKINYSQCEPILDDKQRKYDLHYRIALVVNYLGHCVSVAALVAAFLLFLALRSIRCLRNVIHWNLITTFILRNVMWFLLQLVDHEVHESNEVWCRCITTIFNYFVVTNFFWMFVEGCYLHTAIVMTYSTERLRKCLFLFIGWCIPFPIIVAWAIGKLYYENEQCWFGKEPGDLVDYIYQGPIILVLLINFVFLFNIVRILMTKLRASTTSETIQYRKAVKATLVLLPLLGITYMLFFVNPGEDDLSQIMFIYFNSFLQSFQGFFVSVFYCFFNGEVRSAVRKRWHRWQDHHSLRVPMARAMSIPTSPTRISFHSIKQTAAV
T4 sequence (P24387 whole entry): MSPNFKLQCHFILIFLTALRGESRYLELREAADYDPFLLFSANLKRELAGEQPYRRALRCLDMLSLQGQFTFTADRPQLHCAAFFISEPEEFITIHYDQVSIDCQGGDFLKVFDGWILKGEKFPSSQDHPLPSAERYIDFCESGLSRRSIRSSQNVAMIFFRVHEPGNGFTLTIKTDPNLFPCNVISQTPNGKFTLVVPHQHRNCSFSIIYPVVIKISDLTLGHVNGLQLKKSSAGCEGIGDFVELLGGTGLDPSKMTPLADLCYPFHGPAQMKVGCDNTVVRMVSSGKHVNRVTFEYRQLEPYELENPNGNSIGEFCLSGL
The experiment can be described thus: activators of CRF receptor 2 with binding protein – uHTS hits, confirmation (AID 602473). It is filed as functional. Particulars: read-out: EC50_Mean.

Experiment [13] in a line: Luminescence Cell-Based Dose Retest to Confirm Inhibitors of Cancer Stem Cells. [Related pubchem assays (depositor defined):AID2717, AID2721]. The class given is functional. Particulars: Homo sapiens.
Experiment [14] relates to H9c2. The experiment can be described thus: cells. The class given is functional, cell-based. The note with it: Rattus norvegicus, H9c2, Myocardium.

Sequence of Paired box protein Pax-8 (Q06710 whole entry): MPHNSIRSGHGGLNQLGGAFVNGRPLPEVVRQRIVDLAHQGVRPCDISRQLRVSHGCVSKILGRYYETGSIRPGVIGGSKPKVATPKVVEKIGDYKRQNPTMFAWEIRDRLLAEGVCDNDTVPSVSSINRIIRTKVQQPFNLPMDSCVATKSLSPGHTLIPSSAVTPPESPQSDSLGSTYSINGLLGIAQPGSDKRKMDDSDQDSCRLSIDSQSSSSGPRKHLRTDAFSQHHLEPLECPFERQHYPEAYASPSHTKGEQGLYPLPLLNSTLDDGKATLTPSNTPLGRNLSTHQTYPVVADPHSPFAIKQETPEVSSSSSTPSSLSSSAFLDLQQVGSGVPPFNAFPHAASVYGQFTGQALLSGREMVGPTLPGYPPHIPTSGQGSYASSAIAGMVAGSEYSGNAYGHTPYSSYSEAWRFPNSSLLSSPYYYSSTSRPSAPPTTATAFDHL

As a reminder, the AC50 is the concentration at which the activity in the assay is half-maximal. Regarding `Cc1ccc(S(=O)(=O)Nc2ccc3c(c2)C(=O)N([C@@H](C)CO)C[C@@H](C)[C@@H](CN(C)Cc2ccc(C(F)(F)F)cc2)OCCCC[C@H](C)O3)cc1`, the AC50 in experiment [1] is 9.16 µM (active).
`COc1ccc(C(=O)Nc2ccc3c(c2)nc(CN2CCCC2)n3C)cc1`: the EC50 in experiment [2] is > 195 µM (not active).
`Cc1onc(-c2ccccc2)c1C(=O)NC(=S)NNC(=O)c1cccnc1`: the results for the EC50 in experiment [3] and in [4] were > 38 µM (not active) and > 160 µM (inactive), respectively.
As to `Cc1nc2ncnn2c(Nc2ccc3c(c2)OCO3)c1Cc1ccccc1`, the results for the EC50 in experiment [5], in experiment [6] and in experiment [7] were > 120 µM (not active), > 120 µM (not active) and 43.7 µM (active), respectively.
For orientation: IC50 means the concentration that inhibits the measured activity by half. For the compound `c1ccc(-c2cn(-c3ccccc3)c3ncnc(N4CCCCC4)c23)cc1`, the 50% inhibitory concentration (IC50) in [8] is 5.36 µM (not active).
As for `COC(=O)c1ccc(NC(=O)NC2CCCCC2)cc1`, in experiment [2], the EC50 is > 195 µM (not active).
Consider `Cc1ccnc(NC(=O)CS(=O)(=O)c2ccccc2)c1`, for which the EC50 in [2] is > 195 µM (not active).
Turning to `Cc1ccc(C)c(N(C(=O)Cc2cccs2)C(C(=O)NC2CCCC2)c2ccc(C)o2)c1` (configuration not stated), the half-maximal inhibitory concentration (IC50) in [8] is 7.05 µM (not active).
With `CN(C(=O)c1ccccc1C(=O)OCC(=O)Nc1ccc(S(N)(=O)=O)cc1)c1ccccc1`, in experiment [2], the EC50 was > 195 µM (not active).
With `CCCC1=NN2C(=N)/C(=C\c3cc(C)n(-c4cc(C)cc(C)c4)c3C)C(=O)N=C2S1`, the EC50 in experiment [9] was 5.85 µM (active); in [10], 18.7 µM (active); in [11], 1.63 µM (active); in experiment [12], 9.04 µM (active).
Regarding `CC(C)OC(=O)c1cc2c(ccn2C)n1CC(=O)N(Cc1ccccc1)c1ccccc1`, the EC50 is 13.7 µM (active) in experiment [5], > 120 µM (not active) in experiment [6] and > 120 µM (not active) in [7].
As to `COc1ccc(C(=O)NNC(=S)NC(=O)c2ccc(OC)cc2)cc1`, in experiment [12], the EC50 was 5.09 µM (active).
Consider `C=C1CCN([C@@H](CC(C)C)C(=O)Nc2nc3ccc(Cl)cc3s2)S(=O)(=O)c2ccccc21`, for which, in experiment [13], the AC50 is 5.19 µM (active).
As to `O=C(COS(=O)c1ccccc1)Nc1cc(Cl)ccc1N1CCOCC1` (configuration not stated), the EC50 was 2.82 µM (active) in experiment [3] and > 160 µM (inconclusive) in experiment [4].
`FC(F)(F)c1cccc(Nc2ncnc3ccccc23)c1`: in experiment [13], the AC50 was 1.43 µM (active).
As for `Cc1ccc(CNC(=O)CN=C(S)N(Cc2ccccc2)Cc2ccccc2F)cc1`, the IC50 in experiment [8] is 5.45 µM (not active).
With `O=C(N/N=C/c1sc(N2CCCCC2)nc1-c1cccs1)c1cccnc1`, the EC50 in [3] is > 38 µM (not active); in experiment [4] it was > 160 µM (inconclusive).
In the case of `O=C(Nc1ccncc1)c1ccc(Br)cc1`, the results for the EC50 in experiment [3] and in [4] were > 38 µM (not active) and > 150 µM (inactive), respectively.
As for `CCOc1ccccc1C(=O)N1c2ccccc2Sc2ccccc21`, the half-maximal inhibitory concentration (IC50) in experiment [8] is recorded as 4.06 µM (not active).
The same measure, in the same setting: next, `COc1ccc(NC(=O)c2noc(C(C)C)c2[N+](=O)[O-])cc1`: 9.64 µM (not active).
Turning to `CNC(=O)COC(=O)c1c2c(nc3ccccc13)CCC2`, the EC50 is > 38 µM (not active) in experiment [3] and > 160 µM (inactive) in experiment [4].
As to `C[C@@H]1CN([C@@H](C)CO)C(=O)Cc2cc(NC(=O)Nc3ccc(F)cc3)ccc2O[C@H]1CN(C)Cc1ccc(Cl)c(Cl)c1`, the AC50 in [1] is 5.72 µM (active).
Regarding `Cn1c(NCc2ccco2)nc2c1c(=O)n(Cc1ccc(Cl)cc1)c(=O)n2C`, the EC50 is > 120 µM (not active) in experiment [5] and 16.9 µM (active) in experiment [7]. Besides, the IC50 in [8] is 1.88 µM (not active); in experiment [14], > 79 µM (inactive).
For `CC(C)(C)c1ccc(/C=C2\SC(=O)N(CCNC(=O)c3cccc(S(=O)(=O)N4CCOCC4)c3)C2=O)cc1`, the EC50 in [2] was 2.43 µM (active).
`O=C(NCCc1csc(-c2cccnc2)n1)c1ccc(Br)o1`: the half-maximal inhibitory concentration (IC50) in experiment [8] was < 0.4 µM (not active).
Regarding `NS(=O)(=O)c1ccc(CNC(=O)c2cnccn2)cc1`, the EC50 in experiment [2] is recorded as > 195 µM (not active).
On to `O=C(NCC(=O)N(CC1CCCO1)C(C(=O)NC1CCCCC1)c1ccccc1)c1ccco1` (configuration not stated), for which the EC50 in experiment [3] was 6.52 µM (active); in [4], > 150 µM (inactive).
Take `CN(C)C(=O)C(=O)c1c(-c2ccccc2)cc2ccccn12`: in experiment [8], the IC50 is > 50 µM (not active).
Regarding `Cc1cc(OCC(=O)NNC(=S)NC(=O)c2cccs2)ccc1Cl`, the EC50 is 2.09 µM (active) in experiment [3] and 74.8 µM (active) in experiment [4].
Consider `CCOC(=O)c1c(NC(=O)CSc2nnnn2C)sc(C)c1-c1ccc(C)cc1`, for which, in experiment [8], the 50% inhibitory concentration (IC50) is recorded as 5.1 µM (not active).
`CC/C(=N\CCc1c(C)[nH]c2ccc(OC(F)(F)F)cc12)C1=C(O)CC(c2ccccc2)CC1=O` (configuration not stated): the EC50 in [5] was 8.9 µM (active); in experiment [6], 16.8 µM (active); in experiment [7] it was 10.7 µM (active).
`CC(C)C(=O)Nc1ccc(C(=O)N2CCN(C(=O)c3ccco3)CC2)cc1`: the EC50 in [2] is listed as > 195 µM (not active).
In the case of `COc1ccc(NC(=S)N(CCCN2CCOCC2)Cc2cn(C)c3ccccc23)cc1`, the 50% inhibitory concentration (IC50) in experiment [8] was 0.737 µM (not active).
